# Measurements published in patent US5866617A, “Formulations and methods of use 2,2'-dithio-bis-esthane sulfonate” (BioNumerik Pharmaceuticals, Inc., priority 1997, dated 1999).
# What was measured:
# Fischer rats [1] = experiment: Protection against cisplatin induced nephrotoxicity in Fischer rats (day 5 serum creatinine and BUN); type: in vivo
# Experimental: FIG. 1. Serum Creatinine Values on Day 5 Post Treatment with i.v. Cisplatin (6 mg/kg) With or Without Increasing Doses of i.v. 2,2'-Dithio-Bis-Ethane Sulfonate (BNP7787).
# FIG. 2. Serum BUN (Blood Urea Nitrogen) Values on Day 5 Post Treatment with i.v. Cisplatin (6 mg/kg) With or Without Increasing Doses of i.v. 2,2'-Dithio-Bis-Ethane Sulfonate (BNP7787).
# (§1) The data from these studies are shown below in FIGS. 1 and 2. Under Good Laboratory Practice (GLP) conditions, Fischer rats (10 rats per treatment group) were treated with or without escalating doses of BNP7787 (up to 1000 mg/kg) administered by i.v. injection with a nephrotoxic dose of cisplatin (6 mg/kg). Serum BUN (FIG. 2) and Creatinine (FIG. 1) values were measured on day 5 and the animals were weighed daily. […] The mean day 5 WBC levels of rats treated with higher doses of 2,2'-dithio-bis-ethane sulfonate, namely the 333 mg/kg and 1,000 mg/kg treatment groups, are approximately 6,800 and 6,200, respectively. These mean WBC values are within 15% of the WBC values for untreated controls. The day 5 mean WBC counts for the cisplatin only and low dose (37 mg/kg) 2,2'-dithio-bis-ethane sulfonate treatment groups are approximately 4,800 and 4,500, respectively and represent a 32% to 36% reduction in the day 5 mean WBC from the untreated control group. The Fischer rat model is highly correlated with cisplatin induced nephrotoxicity in humans and is thus an excellent animal model to support the utility of 2,2'-dithio-bis-ethane sulfonate to protect against cisplatin induced nephrotoxicity in humans.
# Fischer rats [2] = experiment: Protection against cisplatin induced myelosuppression in Fischer rats (day 5 WBC); type: in vivo; settings: for deviation of mean WBC from untreated controls: day 5
# Experimental: FIG. 3. Total WBC Values on Day 5 Post Treatment with i.v. Cisplatin (6 mg/kg) With or Without Increasing Doses of i.v. 2,2'-Dithio-Bis-Ethane Sulfonate (BNP7787).
# as §1
# WARD colon cancer = experiment: Antitumor activity in Fischer rats bearing subcutaneous WARD colon cancer; type: in vivo
# Experimental: Antitumor Response of Tumor Bearing Fischer Rats Treated with Parenteral Cisplatin (6 mg/kg or 9 mg/kg) and 2,2'-Dithio-Bis-Ethane Sulfonate (BNP7787 @ 1000 mg/kg).
# [3] = Body weight change in tumor bearing Fischer rats
# Experimental: FIG. 4. Weight Change in Tumor Bearing Fischer Rats Treated with Parenteral Cisplatin (6 mg/kg or 9 mg/kg) and 2,2'-Dithio-Bis-Ethane Sulfonate (BNP7787 @ 1,000 mg/kg).
# The antitumor activity and toxicity, as measured by weight changes estimated by changes in tumor volumes and animal weights, respectively, of escalating doses of parenterally (intravenously) administered cisplatin (6 mg/kg and 9 mg/kg) with or without substantially contemporaneously intravenously administered BNP7787 (1000 mg/kg) was investigated in Fischer rats bearing subcutaneous established (~3.0 g) WARD colon cancer.
# [4] = Stability of 2,2'-dithio-bis-ethane sulfonate in acidic and basic aqueous media (proton NMR); type: physicochemical
# Experimental: The stability of 2,2'-dithio-bis-ethane sulfonate at room temperature was determined at pH ranges of 1.5 to 9.0.
# The stability of 2,2'-dithio-bis-ethane sulfonate in acidic and basic aqueous media can be studied as described in this example. In a typical experiment, 50 mg of 2,2'-dithio-bis-ethane sulfonate (as produced by using the above described method) was dissolved in one ml of water and the pH of the solution adjusted to 1.5, 2.0, 3.0, 4.0, 5.0 and 6.0 by adding 1N hydrochloric acid in water or the pH adjusted to 8.0, 9.0, 10.0 or 11.0 by adding 1N sodium hydroxide in water. The reaction mixture was then stirred for 24 hours at room temperature, the water was removed at reduced pressure, dissolved in spectral grade D2 O, and the proton NMR spectrum was recorded.
# The stability of 2,2'-dithio-bis-ethane sulfonate at pH 1.5 is further studied by heating the reaction mixture to 100 degrees Celsius for 10 minutes.
# [5] = Solubility in sterile water and 0.9% sodium chloride solution, pH 7.15 (tyndall effect); type: physicochemical; settings: water and 0.9% nacl, read-out: concentrations at which soluble
# Experimental: 1 ml of 0.9% sodium chloride solution was then distributed in each of a second set of six sterilized 10 ml vials. The 0.9% sodium chloride solution was obtained by dissolving 9 mg of USP grade sodium chloride in sterile HPLC grade water using an agitator.
# physchem = settings: water
# Experimental: In this example, 10 grams of the disodium salt of 2,2'-dithio-bis-ethane sulfonate was dissolved in 50 ml of sterile HPLC grade water and the pH of the solution was readjusted to a pH of 7.0 using 1N hydrochloric acid. The resulting solution was then passed through a 0.2 micron syringe filter into an autoclaved round bottom flask (250 ml). This sterile solution was then freeze dried (lyophilized) to a white crystalline powder. The lyophilized powder was then used for the following solubility studies.
# 1 ml of sterile HPLC grade water was distributed in each of ten sterilized 10 ml vials. […] Each vial was first observed at room temperature for a period of approximately 15 minutes, and then heated to a temperature of 37° C. for a period of at least 15 minutes.
# [6] = rat, in vivo, iv, 180 min; cited from earlier work
# [7] = human, in vivo, cited from earlier work
# [8] = in vivo; cited from earlier work
# rats = settings: single i.p. dose of 3 mg cisplatin/kg, cited from earlier work
# cancer patients = settings: cited from earlier work
# [9] = BNP7787 37 mg/kg with cisplatin 6 mg/kg
# [10] = BNP7787 333 mg/kg with cisplatin 6 mg/kg
# [11] = BNP7787 1,000 mg/kg with cisplatin 6 mg/kg
# [12] = BNP7787 1000 mg/kg i.v. with cisplatin 6 mg/kg and 9 mg/kg
smiles,measurement,setting,value
O=S(=O)([O-])CCSSCCS(=O)(=O)[O-].[Na+].[Na+],nephrotoxicity (plasma BUN and creatinine levels and histopathology) relative to cisplatin only,Fischer rats [1]; BNP7787 37 mg/kg with cisplatin 6 mg/kg i.v.,slight increase in nephrotoxicity
same,renal protection (day 5 creatinine and BUN),Fischer rats [1]; BNP7787 333 mg/kg i.v. with cisplatin 6 mg/kg i.v.,100%
same,renal protection (day 5 creatinine and BUN),Fischer rats [1]; BNP7787 1000 mg/kg i.v. with cisplatin 6 mg/kg i.v.,100%
same,dose-response effect in renal protection,Fischer rats [1]; escalating i.v. doses up to 1000 mg/kg with cisplatin 6 mg/kg,clear dose-response effect
same,mean day 5 WBC,Fischer rats [2]; [9],"~4,500"
same,reduction in day 5 mean WBC from the untreated control group,Fischer rats [2]; [9],36%
same,mean day 5 WBC,Fischer rats [2]; [10],"approximately 6,800"
same,deviation of mean WBC from untreated controls,Fischer rats [2]; [10],≤ 15%
same,mean day 5 WBC,Fischer rats [2]; [11],"~6,200"
same,deviation of mean WBC from untreated controls,Fischer rats [2]; [11],≤ 15%
same,protective effect against cisplatin induced myelosuppression (WBC),Fischer rats [2]; escalating BNP7787 doses with cisplatin 6 mg/kg,dose-dependent protective effect
same,potentiation of cisplatin antitumor activity,WARD colon cancer; BNP7787 1000 mg/kg i.v. with cisplatin 6 mg/kg or 9 mg/kg,potentiation of cisplatin antitumor activity
same,intrinsic antitumor activity,WARD colon cancer; BNP7787 without cisplatin,lacks intrinsic antitumor activity
same,"median tumor weight at maximum reduction (from 3,000 mg)","WARD colon cancer; cisplatin 6 mg/kg immediately followed by BNP7787 1,000 mg/kg i.v.",less than 300 mg
same,"median tumor weight at maximum reduction (from 3,000 mg)","WARD colon cancer; cisplatin 9 mg/kg immediately followed by BNP7787 1,000 mg/kg i.v.",< 100 mg
same,effect on antitumor activity of cisplatin (abrogation),WARD colon cancer; substantially contemporaneous administration with cisplatin,does not abrogate the antitumor activity of cisplatin
same,mean weights compared with all other treatment groups,[3]; [12],greater mean weights than all other treatment groups
same,protection against renal damage as measured by weight loss,[3]; [12],clearly protective against renal damage
same,change in proton spectrum on heating,"[4]; pH 1.5, 100 degrees Celsius, 10 minutes",No change in the proton spectrum
same,pH range in which stable,"[4]; room temperature, 24 hours, listed as 2,2'-dithio-bis-ethane sulfonate",1.0-11.0
same,solubility,[5],100 to 320 mg/mL
same,solubility,physchem,10.5 to 102 mg/mL
"N.N.[Cl][Pt][Cl] [cisplatin, cis-diammine dichloro platinum, reference compound]",mean day 5 WBC,Fischer rats [2]; cisplatin only 6 mg/kg,"approximately 4,800"
same,reduction in day 5 mean WBC from the untreated control group,Fischer rats [2]; cisplatin only 6 mg/kg,32%
same,"median tumor weight at maximum reduction (from 3,000 mg)",WARD colon cancer; cisplatin only 6 mg/kg i.v.,700 mg
same,"median tumor weight at maximum reduction (from 3,000 mg)",WARD colon cancer; cisplatin only 9 mg/kg i.v.,500 mg
same,loss of body weight,"[3]; cisplatin alone, 6 mg/kg and 9 mg/kg, at 6 days",up to 8%
O=S(=O)([O-])CCS.[Na+],administered dose recovered in the urine,[6],over 80%
same,dose appearing as thiol groups in the urine,"[7]; iv, 20 mg/kg",about 48%
same,dose excreted in the urine as reactive thiol groups,[7]; po,approximately 52%
same,minimum concentration presumed to still be protective,[7],100 µg/mL
same,administered mesna dose found in the urine in the form of mesna (reactive thiol),[8],approximately 45%
same,protection of kidneys from renal damage,rats; low doses of mesna,only partially protected
same,prevention of renal damage,rats; per os mesna,complete prevention of renal damage
"O=S(O)(O)=S [thiosulfates, sodium thiosulfate]",increase of cisplatin dose per meter square that could be administered intraperitoneally,cancer patients; thiosulfates by intravenous infusion,more than two fold
same,renal toxicity of intraperitoneal cisplatin,cancer patients; thiosulfates by the intravenous route,renal toxicity could be prevented
